In BindingDB's records for doi:10.1016/j.chembiol.2014.09.011 (Astrazeneca R&D, 2014):

Legend:
Assay in all cases: AMPD Enzymatic Activity Assay
Conditions in all cases: pH 7.4
AMP deaminase 1 [1] = target: T1, AMP deaminase 1 (Mus musculus, UniProt Q3V1D3)
T1 sequence (Q3V1D3 whole entry): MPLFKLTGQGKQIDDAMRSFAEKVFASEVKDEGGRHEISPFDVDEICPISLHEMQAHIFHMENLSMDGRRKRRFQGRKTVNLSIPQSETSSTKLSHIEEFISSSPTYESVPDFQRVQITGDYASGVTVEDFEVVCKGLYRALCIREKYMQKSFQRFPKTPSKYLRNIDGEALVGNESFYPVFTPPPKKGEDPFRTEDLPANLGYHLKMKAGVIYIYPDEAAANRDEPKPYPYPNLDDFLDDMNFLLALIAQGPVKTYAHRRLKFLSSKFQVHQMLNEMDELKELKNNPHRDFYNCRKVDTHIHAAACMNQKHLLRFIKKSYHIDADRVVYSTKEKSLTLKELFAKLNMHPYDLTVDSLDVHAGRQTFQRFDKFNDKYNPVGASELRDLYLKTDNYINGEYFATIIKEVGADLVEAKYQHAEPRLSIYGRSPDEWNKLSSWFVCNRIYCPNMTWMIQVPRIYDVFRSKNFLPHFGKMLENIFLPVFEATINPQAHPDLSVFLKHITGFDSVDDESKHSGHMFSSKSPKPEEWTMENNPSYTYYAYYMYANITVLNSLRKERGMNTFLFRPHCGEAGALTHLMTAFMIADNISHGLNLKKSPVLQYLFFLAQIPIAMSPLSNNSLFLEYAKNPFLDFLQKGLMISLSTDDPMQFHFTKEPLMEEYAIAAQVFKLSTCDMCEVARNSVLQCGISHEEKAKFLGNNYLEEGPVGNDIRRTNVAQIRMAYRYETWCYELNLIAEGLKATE
Experimental: (§1) AMPD1 was added to buffer A (50 mM HEPES, 150 mM KCl, 5 mM MgCl2, and 0.5 mMglutathione [pH 7.4]) to a concentration of 10 nM. A substrate mix consistingof 2mMNADPH, 6mMa-ketoglutarate, 8mMAMP, and 15 U GDH was prepared in buffer A. Substrate mix ([…]) was added to the plate, followed by centrifugation and incubation for 1 hr. Detection was by absorbance at 340 nm following the conversion of NADPH to NADP+. Recombinant AMPD enzyme activity assays were performed in a 384-well format using the same conditions as described above, except the assay volume was […] and the AMP concentration for the AMPD2 assay was 8 mM. Different AMPD enzyme concentrations were used to have linear reactions: hAMPD1 (4 nM), hAMPD2 (38 nM), hAMPD3 (1 nM), rAMPD1 (116 nM), rAMPD2 (53 nM), rAMPD3 (31 nM), and mAMPD1 (816 nM).

AMP deaminase 1 [2] = target: T2, AMP deaminase 1 (Rattus norvegicus, UniProt P10759)
T2 sequence (P10759 whole entry): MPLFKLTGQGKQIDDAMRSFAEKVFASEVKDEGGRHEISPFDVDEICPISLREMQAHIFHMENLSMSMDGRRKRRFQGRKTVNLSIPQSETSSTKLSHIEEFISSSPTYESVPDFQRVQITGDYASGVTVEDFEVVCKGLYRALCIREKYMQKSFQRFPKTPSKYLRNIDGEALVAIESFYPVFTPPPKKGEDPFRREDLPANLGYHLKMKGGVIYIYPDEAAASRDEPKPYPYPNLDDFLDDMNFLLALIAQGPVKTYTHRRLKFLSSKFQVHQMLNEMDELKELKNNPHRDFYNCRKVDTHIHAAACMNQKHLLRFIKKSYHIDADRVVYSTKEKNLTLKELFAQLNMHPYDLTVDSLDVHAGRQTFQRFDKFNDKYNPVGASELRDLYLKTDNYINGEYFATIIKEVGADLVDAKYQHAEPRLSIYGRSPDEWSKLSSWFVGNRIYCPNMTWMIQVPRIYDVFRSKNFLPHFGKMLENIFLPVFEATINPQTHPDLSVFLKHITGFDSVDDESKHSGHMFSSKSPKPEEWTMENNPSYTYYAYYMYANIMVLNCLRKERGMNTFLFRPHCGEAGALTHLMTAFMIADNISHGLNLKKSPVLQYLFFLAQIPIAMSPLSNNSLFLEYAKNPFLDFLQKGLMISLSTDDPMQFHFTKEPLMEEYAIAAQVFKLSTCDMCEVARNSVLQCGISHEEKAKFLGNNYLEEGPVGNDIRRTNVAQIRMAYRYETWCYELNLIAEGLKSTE
Experimental: as §1

AMP deaminase 3 = target: T3, AMP deaminase 3 (Homo sapiens, UniProt Q01432)
T3 sequence (Q01432 whole entry): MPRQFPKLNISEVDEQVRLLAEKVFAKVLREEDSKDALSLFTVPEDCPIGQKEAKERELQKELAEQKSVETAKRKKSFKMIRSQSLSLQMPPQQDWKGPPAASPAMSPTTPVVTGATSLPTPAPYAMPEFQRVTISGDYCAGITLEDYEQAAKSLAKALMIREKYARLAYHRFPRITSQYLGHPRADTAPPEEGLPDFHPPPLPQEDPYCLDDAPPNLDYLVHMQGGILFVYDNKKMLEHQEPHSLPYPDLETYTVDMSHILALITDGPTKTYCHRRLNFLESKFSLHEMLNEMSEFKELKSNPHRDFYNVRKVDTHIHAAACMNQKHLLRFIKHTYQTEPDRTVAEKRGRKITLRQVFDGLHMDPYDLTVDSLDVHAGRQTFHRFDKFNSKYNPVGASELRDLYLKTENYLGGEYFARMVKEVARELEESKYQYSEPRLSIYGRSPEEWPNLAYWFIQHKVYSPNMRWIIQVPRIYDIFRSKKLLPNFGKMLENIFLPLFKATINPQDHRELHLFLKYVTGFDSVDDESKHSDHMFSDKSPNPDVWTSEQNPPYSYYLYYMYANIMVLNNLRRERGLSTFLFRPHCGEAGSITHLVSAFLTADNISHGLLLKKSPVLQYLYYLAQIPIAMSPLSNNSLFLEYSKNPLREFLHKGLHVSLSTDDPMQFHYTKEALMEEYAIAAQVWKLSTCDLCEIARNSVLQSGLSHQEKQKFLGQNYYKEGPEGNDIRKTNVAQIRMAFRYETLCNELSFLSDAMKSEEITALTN
Experimental: as §1

Row | IC50 (AMP deaminase 1 [1]) [µM] | IC50 (AMP deaminase 1 [2]) [µM] | IC50 (AMP deaminase 3) [µM] | SMILES
1 | 0.024 | 0.027 | 0.075 | C[C@H](NCc1ccc(-c2ccc(C(=O)O)cn2)cc1)c1cccc2ccncc12 [6-[4-({[(1S)-1-(isoquinolin-8-yl)ethyl]amino}methyl)phenyl]pyridine-3-carboxylic acid (Compound 3)]
2 | 4.5 | 5.8 | 7.3 | C[C@@H](NCc1ccc(-c2ccc(C(=O)O)cn2)cc1)c1cccc2ccncc12 [6-[4-({[(1R)-1-(isoquinolin-8-yl)ethyl]amino}methyl)phenyl]pyridine-3-carboxylic acid (Compound 2)]
